Active and inactive are the calls of the source. The calls are words filed in the database; no cut-off is given here.
Assays:
Format in all cases: protein assay
[1] = target: T1, Alpha-1,2-mannosidase (BT_1878) (Bacteroides thetaiotaomicron) (UniProt Q8A6K3); assay: Activity of Bacteroides thetaiotaomicron GH92 alpha-mannosidase GH92 alpha-mannosidase 1878 assessed as mannose release at 1 mM after 16 hrs by HPLC relative to untreated control after 16 hrs by HPLC
T1 sequence (whole entry): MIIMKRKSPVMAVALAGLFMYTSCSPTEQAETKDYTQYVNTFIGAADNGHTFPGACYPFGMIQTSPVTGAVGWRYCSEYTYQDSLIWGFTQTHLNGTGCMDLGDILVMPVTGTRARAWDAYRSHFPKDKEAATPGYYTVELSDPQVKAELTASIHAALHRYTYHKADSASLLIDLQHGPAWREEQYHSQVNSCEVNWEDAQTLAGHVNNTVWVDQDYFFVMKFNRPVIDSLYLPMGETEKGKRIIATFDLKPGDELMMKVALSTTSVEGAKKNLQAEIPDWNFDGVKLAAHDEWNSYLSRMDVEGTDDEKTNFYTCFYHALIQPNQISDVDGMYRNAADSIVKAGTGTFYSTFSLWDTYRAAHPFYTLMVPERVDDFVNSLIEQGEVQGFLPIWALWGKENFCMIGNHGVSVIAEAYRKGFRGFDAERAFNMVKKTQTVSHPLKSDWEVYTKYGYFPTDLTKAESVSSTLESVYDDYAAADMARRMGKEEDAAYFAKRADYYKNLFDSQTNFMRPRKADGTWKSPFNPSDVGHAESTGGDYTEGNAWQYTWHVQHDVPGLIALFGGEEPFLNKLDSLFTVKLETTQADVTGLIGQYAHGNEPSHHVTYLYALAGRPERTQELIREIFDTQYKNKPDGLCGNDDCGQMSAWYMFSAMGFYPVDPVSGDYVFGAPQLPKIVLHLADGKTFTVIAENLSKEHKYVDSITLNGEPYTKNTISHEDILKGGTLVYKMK

[2] = target: T2, Alpha-1,2-mannosidase (BT_2629) (Bacteroides thetaiotaomicron) (UniProt Q8A4H0); assay: Activity of Bacteroides thetaiotaomicron GH92 alpha-mannosidase GH92 alpha-mannosidase 2629 assessed as mannose release at 1 mM after 16 hrs by HPLC relative to untreated control after 16 hrs by HPLC
T2 sequence (whole entry): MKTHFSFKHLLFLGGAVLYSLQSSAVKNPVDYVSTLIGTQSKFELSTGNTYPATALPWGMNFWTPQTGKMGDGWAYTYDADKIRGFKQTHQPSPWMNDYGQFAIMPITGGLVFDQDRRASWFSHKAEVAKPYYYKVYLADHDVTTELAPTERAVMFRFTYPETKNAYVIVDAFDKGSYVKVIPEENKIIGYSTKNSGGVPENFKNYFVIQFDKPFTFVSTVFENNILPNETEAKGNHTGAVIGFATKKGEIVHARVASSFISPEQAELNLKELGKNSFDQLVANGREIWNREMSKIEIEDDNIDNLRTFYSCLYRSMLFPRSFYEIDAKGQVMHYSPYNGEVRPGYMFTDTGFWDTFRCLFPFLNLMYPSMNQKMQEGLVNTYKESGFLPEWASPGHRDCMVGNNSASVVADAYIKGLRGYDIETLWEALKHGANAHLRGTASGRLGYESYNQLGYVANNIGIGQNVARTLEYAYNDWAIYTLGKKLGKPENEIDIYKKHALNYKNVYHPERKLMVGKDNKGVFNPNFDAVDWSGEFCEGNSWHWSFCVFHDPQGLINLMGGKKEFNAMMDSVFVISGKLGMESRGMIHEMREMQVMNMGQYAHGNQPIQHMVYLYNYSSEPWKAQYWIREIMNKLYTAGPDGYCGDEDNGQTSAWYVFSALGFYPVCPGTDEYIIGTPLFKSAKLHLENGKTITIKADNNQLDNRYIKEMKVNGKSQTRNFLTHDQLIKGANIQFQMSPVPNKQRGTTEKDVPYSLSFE

[3] = target: T3, Alpha-1,2-mannosidase (BT_1769) (Bacteroides thetaiotaomicron) (UniProt Q8A6V7); assay: Activity of Bacteroides thetaiotaomicron GH92 alpha-mannosidase GH92 alpha-mannosidase 1769 assessed as mannose release at 1 mM after 16 hrs by HPLC relative to untreated control after 16 hrs by HPLC
T3 sequence (whole entry): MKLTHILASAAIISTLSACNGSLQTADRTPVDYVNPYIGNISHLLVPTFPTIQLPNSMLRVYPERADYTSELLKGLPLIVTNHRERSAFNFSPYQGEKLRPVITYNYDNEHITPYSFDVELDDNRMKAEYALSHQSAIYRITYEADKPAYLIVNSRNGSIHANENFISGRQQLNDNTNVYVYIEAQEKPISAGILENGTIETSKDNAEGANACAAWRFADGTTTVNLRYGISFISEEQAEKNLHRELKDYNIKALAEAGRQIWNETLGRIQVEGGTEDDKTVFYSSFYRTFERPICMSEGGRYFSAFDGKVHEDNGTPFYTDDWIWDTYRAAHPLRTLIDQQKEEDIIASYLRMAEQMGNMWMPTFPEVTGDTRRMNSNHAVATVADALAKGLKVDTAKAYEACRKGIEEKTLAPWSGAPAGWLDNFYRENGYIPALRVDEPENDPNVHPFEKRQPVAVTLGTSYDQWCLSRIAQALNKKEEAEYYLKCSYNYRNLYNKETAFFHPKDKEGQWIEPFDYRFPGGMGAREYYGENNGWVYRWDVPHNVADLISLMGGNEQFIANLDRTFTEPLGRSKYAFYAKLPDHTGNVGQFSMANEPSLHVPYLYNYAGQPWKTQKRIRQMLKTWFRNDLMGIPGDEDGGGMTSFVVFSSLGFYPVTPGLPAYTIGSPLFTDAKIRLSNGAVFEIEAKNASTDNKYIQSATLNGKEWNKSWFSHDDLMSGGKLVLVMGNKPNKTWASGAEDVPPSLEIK

## OC[C@H]1O[C@H](O[C@H]2[C@@H](O)[C@H](O)[C@@H](CO)O[C@@H]2O)[C@@H](O)[C@@H](O)[C@@H]1O
[1]
  Activity: 4.5%
[2]
  Activity: inactive
[3]
  Activity: 0.0023%

## OC[C@H]1O[C@H](OC[C@H]2O[C@H](O)[C@@H](O)[C@@H](O)[C@@H]2O)[C@@H](O)[C@@H](O)[C@@H]1O
[1]
  Activity: 1.1%
[2]
  Activity: inactive
[3]
  Activity: inactive

## OC[C@H]1O[C@H](O[C@@H]2[C@H](O)[C@@H](O)O[C@H](CO)[C@H]2O)[C@@H](O)[C@@H](O)[C@@H]1O
[2]
  Activity: inactive

## OC[C@H]1O[C@H](O[C@H]2[C@H](O)[C@H](O)[C@@H](O)O[C@@H]2CO)[C@@H](O)[C@@H](O)[C@@H]1O
[1]
  Activity: 3.6%
[2]
  Activity: inactive
[3]
  Activity: 0.026%
